Data from ChEMBL document CHEMBL1150905, “Cytotoxic quassinoids from Simaba cedron” (J Nat Prod, 1998).
Values after ≈ are worked out from the molar mass of the structure shown.

Tested on: P388
Experiment: Cytotoxicity against mouse P388 cells after 3 days by MTT assay
Format: functional, cell-based
Details: P388, 72 h

Compound | IC50 [µg/mL]
CC1=CC(=O)O[C@@H]1[C@@]1(C)C[C@H]2OC(=O)C[C@H]3[C@@H](C)[C@@H](O)[C@]4(O)OC[C@]23[C@@H]14 [AILANQUASSIN A] | 39 (≈ 107 µM)
CC1=CC(=O)[C@@H](O)[C@]2(C)[C@H]3[C@@H](O)[C@H](O)[C@@]4(C)OC[C@@]35[C@@H](C[C@@H]12)OC(=O)[C@H](OC(=O)CC(C)C)[C@@H]45 [CEDRONOLACTONE A] | 0.0074 (≈ 0.0155 µM)
CC1=CC(=O)O[C@H]1[C@@]1(C)C[C@H]2OC(=O)C[C@H]3[C@@H](C)[C@@H](O)[C@]4(O)OC[C@]23[C@@H]14 [CEDRONOLACTONE B] | 6.5 (≈ 17.8 µM)
CC1=CC(=O)O[C@H]1[C@@]1(C)C[C@H]2OC(=O)[C@H](O)[C@H]3[C@@H](C)[C@@H](O)[C@]4(O)OC[C@@]32[C@@H]14 [CEDRONOLACTONE C] | 49 (≈ 129 µM)
CC1=CC(=O)[C@@H](O)[C@]2(C)[C@H]3[C@@]4(O)OC[C@@]35[C@@H](C[C@@H]12)OC(=O)C[C@H]5[C@@H](C)[C@H]4O [CHAPARRINONE] | 0.92 (≈ 2.43 µM)
CC1=C[C@H](O)[C@@H](O)[C@]2(C)[C@H]3[C@@]4(O)OC[C@@]35[C@@H](C[C@@H]12)OC(=O)C[C@H]5[C@@H](C)[C@H]4O [CHAPARRIN] | > 100
CC1=CC(=O)[C@@H](O)[C@]2(C)[C@H]3[C@]4(O)OC[C@]35[C@H]([C@@H](C)[C@H]4O)[C@@H](O)C(=O)O[C@@H]5C[C@@H]12 [GLAUCARUBOLONE] | 1.4 (≈ 3.55 µM)
CC1=C[C@H](O)[C@@H](O)[C@]2(C)[C@H]3[C@@]4(O)OC[C@]35[C@H]([C@@H](C)[C@H]4O)[C@@H](O)C(=O)O[C@@H]5C[C@@H]12 [GLAUCARUBOL] | > 100
CC(=O)O[C@H]1C[C@@](C)([C@H]2OC(=O)C[C@@H]2CO)C2=CC(=O)O[C@@H]3C[C@@H]4[C@](C)(C(=O)C=C[C@@]4(C)O)[C@@H]1[C@]23C [GUANEPOLIDE] | 70 (≈ 139 µM)
CC1=CC(=O)O[C@@H]1[C@@]1(C)C[C@H]2OC(=O)[C@H](O)[C@H]3[C@@H](C)[C@@H](O)[C@]4(O)OC[C@@]32[C@@H]14 [POLYANDROL] | 17 (≈ 44.7 µM)
CC[C@@H](C)C(=O)O[C@H]1C(=O)O[C@@H]2C[C@H]3C(C)=CC(=O)[C@@H](O)[C@]3(C)[C@H]3[C@@H](O)[C@H](O)[C@]4(C)OC[C@]32[C@@H]14 [SIMALIKALACTONE D] | 0.0055 (≈ 0.0115 µM)
CC1=CC(=O)[C@@H](O)[C@]2(C)[C@H]3[C@@H](O)[C@H](O)[C@@]4(C)OC[C@@]35[C@@H](C[C@@H]12)OC(=O)[C@H](O)[C@@H]45 [YADANZIOLIDE C] | 2.4 (≈ 6.08 µM)
